Assay results published in PMC9067983, “Identification of highly selective type II kinase inhibitors with chiral peptidomimetic tails” (Journal of Enzyme Inhibition and Medicinal Chemistry, 2022).
Where a SMILES comes first, the peptide text is derived from it. [ ]: non-standard residue; d: D form. The star is where a group is joined. X1 = Cc1ccc(Nc2ncc3c(n2)N(C)C(=O)N(c2cc(C(=O)*)ccc2C)C3)cn1; Aib = CC(C)(N)C(=O)O

Assays:
Test in all cases: kinase selectivity profiling
Type in all cases: biochemical
Settings in all cases: 10µM ATP, read-out: % inhibition (relative to DMSO)
[1] = target: T1, PKAcg (Homo sapiens, UniProt P22612)
T1 construct: purchased Reaction Biology Corp
Experimental: (§1) Full panel kinase profiling and kinase IC50 measurement were performed by using Reaction Biology Corp. (San Diego, USA).

[2] = target: T2, HCK (Homo sapiens, UniProt P08631)
T2 construct: purchased Reaction Biology Corp
Experimental: as §1

[3] = target: T3, PLK2 (Homo sapiens, UniProt Q9NYY3)
T3 construct: purchased Reaction Biology Corp
Experimental: as §1

[4] = target: T4, CDK2/cyclin A (Homo sapiens, UniProt P24941)
T4 construct: purchased Reaction Biology Corp
Experimental: as §1

[5] = target: T5, PLK4/SAK (Homo sapiens, UniProt O00444)
T5 construct: purchased Reaction Biology Corp
Experimental: as §1

[6] = target: T6, FAK/PTK2 (Homo sapiens, UniProt Q05397)
T6 construct: purchased Reaction Biology Corp
Experimental: as §1

[7] = target: T7, CDK1/cyclin E (Homo sapiens, UniProt P06493)
T7 construct: purchased Reaction Biology Corp
Experimental: as §1

[8] = target: T8, ALK5/TGFBR1 (Homo sapiens, UniProt P36897)
T8 construct: purchased Reaction Biology Corp
Experimental: as §1

[9] = target: T9, MLCK2/MYLK2 (Homo sapiens, UniProt Q9H1R3)
T9 construct: purchased Reaction Biology Corp
Experimental: as §1

[10] = target: T10, RIPK2 (Homo sapiens, UniProt O43353)
T10 construct: purchased Reaction Biology Corp
Experimental: as §1

[11] = target: T11, CAMK2d (Homo sapiens, UniProt Q13557)
T11 construct: purchased Reaction Biology Corp
Experimental: as §1

[12] = target: T12, VRK2 (Homo sapiens, UniProt Q86Y07)
T12 construct: purchased Reaction Biology Corp
Experimental: as §1

[13] = target: T13, DMPK2 (Homo sapiens, UniProt Q6DT37)
T13 construct: purchased Reaction Biology Corp
Experimental: as §1

[14] = target: T14, SIK1 (Homo sapiens, UniProt P57059)
T14 construct: purchased Reaction Biology Corp
Experimental: as §1

[15] = target: T15, STK32C/YANK3 (Homo sapiens, UniProt Q86UX6)
T15 construct: purchased Reaction Biology Corp
Experimental: as §1

[16] = target: T16, CDK5/P25 (Homo sapiens, UniProt Q00535)
T16 construct: purchased Reaction Biology Corp
Experimental: as §1

[17] = target: T17, CDK16/cyclin Y (PCTAIRE) (Homo sapiens, UniProt Q00536)
T17 construct: purchased Reaction Biology Corp
Experimental: as §1

[18] = target: T18, DLK/MAP3K12 (Homo sapiens, UniProt Q12852)
T18 construct: purchased Reaction Biology Corp
Experimental: as §1

[19] = target: T19, MYLK4 (Homo sapiens, UniProt Q86YV6)
T19 construct: purchased Reaction Biology Corp
Experimental: as §1

[20] = target: T20, CDC7/DBF4 (Homo sapiens, UniProt O00311)
T20 construct: purchased Reaction Biology Corp
Experimental: as §1

[21] = target: T21, ALK1/ACVRL1 (Homo sapiens, UniProt P37023)
T21 construct: purchased Reaction Biology Corp
Experimental: as §1

[22] = target: T22, SSTK/TSSK6 (Homo sapiens, UniProt Q9BXA6)
T22 construct: purchased Reaction Biology Corp
Experimental: as §1

[23] = target: T23, FLT1/VEGFR1 (Homo sapiens, UniProt P17948)
T23 construct: purchased Reaction Biology Corp
Experimental: as §1

[24] = target: T24, CHK2 (Homo sapiens, UniProt O96017)
T24 construct: purchased Reaction Biology Corp
Experimental: as §1

[25] = target: T25, GSK3b (Homo sapiens, UniProt P49841)
T25 construct: purchased Reaction Biology Corp
Experimental: as §1

[26] = target: T26, c-MET (Homo sapiens, UniProt P08581)
T26 construct: purchased Reaction Biology Corp
Experimental: as §1

[27] = target: T27, SRPK1 (Homo sapiens, UniProt Q96SB4)
T27 construct: purchased Reaction Biology Corp
Experimental: as §1

[28] = target: T28, DYRK1B (Homo sapiens, UniProt Q9Y463)
T28 construct: purchased Reaction Biology Corp
Experimental: as §1

[29] = target: T29, TLK2 (Homo sapiens, UniProt Q86UE8)
T29 construct: purchased Reaction Biology Corp
Experimental: as §1

[30] = target: T30, MST2/STK3 (Homo sapiens, UniProt Q13188)
T30 construct: purchased Reaction Biology Corp
Experimental: as §1

[31] = target: T31, NEK3 (Homo sapiens, UniProt P51956)
T31 construct: purchased Reaction Biology Corp
Experimental: as §1

[32] = target: T32, FES/FPS (Homo sapiens, UniProt P07332)
T32 construct: purchased Reaction Biology Corp
Experimental: as §1

[33] = target: T33, TRKA (Homo sapiens, UniProt P04629)
T33 construct: purchased Reaction Biology Corp
Experimental: as §1

[34] = target: T34, MNK2 (Homo sapiens, UniProt Q9HBH9)
T34 construct: purchased Reaction Biology Corp
Experimental: as §1

[35] = target: T35, TAOK3/JIK (Homo sapiens, UniProt Q9H2K8)
T35 construct: purchased Reaction Biology Corp
Experimental: as §1

[36] = target: T36, CK1epsilon (Homo sapiens, UniProt P49674)
T36 construct: purchased Reaction Biology Corp
Experimental: as §1

[37] = target: T37, p70S6Kb/RPS6KB2 (Homo sapiens, UniProt Q9UBS0)
T37 construct: purchased Reaction Biology Corp
Experimental: as §1

[38] = target: T38, MEKK1 (Homo sapiens, UniProt Q13233)
T38 construct: purchased Reaction Biology Corp
Experimental: as §1

[39] = target: T39, PAK2 (Homo sapiens, UniProt Q13177)
T39 construct: purchased Reaction Biology Corp
Experimental: as §1

[40] = target: T40, JNK3 (Homo sapiens, UniProt P53779)
T40 construct: purchased Reaction Biology Corp
Experimental: as §1

[41] = target: T41, ULK3 (Homo sapiens, UniProt Q6PHR2)
T41 construct: purchased Reaction Biology Corp
Experimental: as §1

[42] = target: T42, STK38/NDR1 (Homo sapiens, UniProt Q15208)
T42 construct: purchased Reaction Biology Corp
Experimental: as §1

T30 sequence (Q13188 whole entry): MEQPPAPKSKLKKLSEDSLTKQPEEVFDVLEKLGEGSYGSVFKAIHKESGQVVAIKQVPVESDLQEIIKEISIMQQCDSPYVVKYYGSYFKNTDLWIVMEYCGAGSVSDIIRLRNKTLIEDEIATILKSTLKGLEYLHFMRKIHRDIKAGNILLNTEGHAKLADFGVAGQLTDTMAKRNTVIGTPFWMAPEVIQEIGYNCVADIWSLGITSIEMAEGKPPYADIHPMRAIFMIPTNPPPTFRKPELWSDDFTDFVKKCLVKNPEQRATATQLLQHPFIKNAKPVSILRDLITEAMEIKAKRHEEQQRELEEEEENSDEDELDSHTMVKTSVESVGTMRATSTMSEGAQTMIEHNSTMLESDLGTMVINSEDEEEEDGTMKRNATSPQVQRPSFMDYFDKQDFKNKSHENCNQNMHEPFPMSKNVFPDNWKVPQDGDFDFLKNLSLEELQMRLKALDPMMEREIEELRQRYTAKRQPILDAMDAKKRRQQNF
T9 sequence (Q9H1R3 whole entry): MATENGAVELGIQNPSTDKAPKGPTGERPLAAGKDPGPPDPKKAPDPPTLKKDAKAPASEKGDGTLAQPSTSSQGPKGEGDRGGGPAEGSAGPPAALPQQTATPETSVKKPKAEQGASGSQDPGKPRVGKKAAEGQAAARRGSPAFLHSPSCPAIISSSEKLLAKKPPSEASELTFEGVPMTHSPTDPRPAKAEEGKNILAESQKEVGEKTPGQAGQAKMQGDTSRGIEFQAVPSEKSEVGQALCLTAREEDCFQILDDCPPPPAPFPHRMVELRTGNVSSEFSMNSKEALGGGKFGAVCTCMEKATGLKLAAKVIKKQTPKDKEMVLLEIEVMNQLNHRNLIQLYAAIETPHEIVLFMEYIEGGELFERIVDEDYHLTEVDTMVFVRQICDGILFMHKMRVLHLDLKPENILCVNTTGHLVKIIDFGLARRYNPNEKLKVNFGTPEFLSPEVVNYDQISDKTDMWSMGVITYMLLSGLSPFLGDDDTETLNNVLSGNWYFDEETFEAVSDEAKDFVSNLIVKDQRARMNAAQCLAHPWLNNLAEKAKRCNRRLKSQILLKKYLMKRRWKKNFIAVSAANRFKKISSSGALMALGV
T8 sequence (P36897 34-503): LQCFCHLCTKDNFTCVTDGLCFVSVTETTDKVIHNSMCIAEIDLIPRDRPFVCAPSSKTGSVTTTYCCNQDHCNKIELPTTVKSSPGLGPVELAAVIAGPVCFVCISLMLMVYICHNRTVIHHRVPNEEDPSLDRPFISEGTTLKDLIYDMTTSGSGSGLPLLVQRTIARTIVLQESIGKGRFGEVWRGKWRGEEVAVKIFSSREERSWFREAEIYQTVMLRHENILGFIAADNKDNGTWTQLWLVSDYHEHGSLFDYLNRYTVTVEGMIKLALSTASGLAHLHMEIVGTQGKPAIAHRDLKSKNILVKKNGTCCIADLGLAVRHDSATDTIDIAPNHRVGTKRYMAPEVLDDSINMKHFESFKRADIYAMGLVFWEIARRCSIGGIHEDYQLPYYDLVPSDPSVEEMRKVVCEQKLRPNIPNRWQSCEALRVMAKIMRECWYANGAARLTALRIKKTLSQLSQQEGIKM
T40 sequence (P53779 whole entry): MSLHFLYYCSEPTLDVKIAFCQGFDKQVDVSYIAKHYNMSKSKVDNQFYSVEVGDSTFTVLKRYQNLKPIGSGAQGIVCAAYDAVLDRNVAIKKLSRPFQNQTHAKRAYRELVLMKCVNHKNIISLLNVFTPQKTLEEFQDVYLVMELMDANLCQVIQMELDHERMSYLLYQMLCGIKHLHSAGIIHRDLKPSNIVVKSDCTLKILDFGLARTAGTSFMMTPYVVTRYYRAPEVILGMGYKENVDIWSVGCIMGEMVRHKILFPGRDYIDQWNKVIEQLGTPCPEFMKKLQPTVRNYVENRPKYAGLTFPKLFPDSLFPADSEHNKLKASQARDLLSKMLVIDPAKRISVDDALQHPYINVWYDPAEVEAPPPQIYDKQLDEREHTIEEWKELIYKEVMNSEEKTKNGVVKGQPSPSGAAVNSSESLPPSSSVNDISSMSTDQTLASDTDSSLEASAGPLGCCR
T13 sequence (Q6DT37 whole entry): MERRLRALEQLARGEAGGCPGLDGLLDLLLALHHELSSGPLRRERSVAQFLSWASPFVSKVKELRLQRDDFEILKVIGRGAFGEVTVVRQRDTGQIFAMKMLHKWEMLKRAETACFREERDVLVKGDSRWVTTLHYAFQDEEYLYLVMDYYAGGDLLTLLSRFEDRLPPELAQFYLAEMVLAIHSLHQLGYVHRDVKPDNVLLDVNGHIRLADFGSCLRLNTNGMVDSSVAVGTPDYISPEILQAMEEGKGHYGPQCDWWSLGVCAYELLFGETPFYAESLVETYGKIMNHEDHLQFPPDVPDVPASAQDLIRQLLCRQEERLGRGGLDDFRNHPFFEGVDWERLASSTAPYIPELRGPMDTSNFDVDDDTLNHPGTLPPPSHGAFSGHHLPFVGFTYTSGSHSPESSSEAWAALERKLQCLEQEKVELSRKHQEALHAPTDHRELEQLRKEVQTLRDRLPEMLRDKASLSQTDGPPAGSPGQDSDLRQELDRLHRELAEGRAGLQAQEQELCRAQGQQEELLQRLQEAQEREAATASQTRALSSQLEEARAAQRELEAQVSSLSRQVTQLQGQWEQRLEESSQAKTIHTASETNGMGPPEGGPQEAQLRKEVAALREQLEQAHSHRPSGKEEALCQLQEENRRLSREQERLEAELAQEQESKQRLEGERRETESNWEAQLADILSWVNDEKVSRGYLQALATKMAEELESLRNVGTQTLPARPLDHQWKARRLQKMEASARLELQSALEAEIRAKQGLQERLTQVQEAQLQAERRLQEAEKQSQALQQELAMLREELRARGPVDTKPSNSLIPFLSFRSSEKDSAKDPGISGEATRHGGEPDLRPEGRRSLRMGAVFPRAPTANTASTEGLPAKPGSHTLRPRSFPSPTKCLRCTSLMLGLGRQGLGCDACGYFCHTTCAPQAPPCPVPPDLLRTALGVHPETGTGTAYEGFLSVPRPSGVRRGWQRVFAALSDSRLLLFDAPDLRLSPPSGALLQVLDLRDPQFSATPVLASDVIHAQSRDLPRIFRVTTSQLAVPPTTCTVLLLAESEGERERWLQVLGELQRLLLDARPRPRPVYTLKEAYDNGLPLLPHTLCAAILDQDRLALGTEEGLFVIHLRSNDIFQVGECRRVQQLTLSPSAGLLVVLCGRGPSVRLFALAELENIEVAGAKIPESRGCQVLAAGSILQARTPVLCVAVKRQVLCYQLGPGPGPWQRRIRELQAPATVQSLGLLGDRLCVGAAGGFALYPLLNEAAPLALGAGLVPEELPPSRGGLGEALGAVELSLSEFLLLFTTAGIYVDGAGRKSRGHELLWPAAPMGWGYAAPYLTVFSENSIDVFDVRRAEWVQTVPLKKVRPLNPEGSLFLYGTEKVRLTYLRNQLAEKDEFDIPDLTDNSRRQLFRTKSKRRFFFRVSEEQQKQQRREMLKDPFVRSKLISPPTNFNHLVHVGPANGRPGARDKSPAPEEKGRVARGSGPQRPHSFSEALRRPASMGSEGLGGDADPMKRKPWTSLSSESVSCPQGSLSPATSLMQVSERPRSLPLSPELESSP
T2 sequence (P08631 whole entry): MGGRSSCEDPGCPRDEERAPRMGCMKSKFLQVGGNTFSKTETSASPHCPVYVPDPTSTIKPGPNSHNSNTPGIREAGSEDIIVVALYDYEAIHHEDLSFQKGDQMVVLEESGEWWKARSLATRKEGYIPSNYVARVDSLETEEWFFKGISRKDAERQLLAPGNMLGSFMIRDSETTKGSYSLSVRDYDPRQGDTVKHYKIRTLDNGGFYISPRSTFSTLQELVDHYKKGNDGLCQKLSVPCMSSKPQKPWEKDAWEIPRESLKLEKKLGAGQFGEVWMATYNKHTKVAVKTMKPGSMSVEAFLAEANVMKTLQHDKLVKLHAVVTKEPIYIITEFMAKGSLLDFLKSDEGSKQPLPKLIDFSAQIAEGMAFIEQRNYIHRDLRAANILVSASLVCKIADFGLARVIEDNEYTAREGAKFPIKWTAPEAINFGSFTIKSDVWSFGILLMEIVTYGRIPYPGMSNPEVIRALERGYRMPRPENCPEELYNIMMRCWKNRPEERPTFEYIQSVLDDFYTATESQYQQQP
T24 sequence (O96017 whole entry): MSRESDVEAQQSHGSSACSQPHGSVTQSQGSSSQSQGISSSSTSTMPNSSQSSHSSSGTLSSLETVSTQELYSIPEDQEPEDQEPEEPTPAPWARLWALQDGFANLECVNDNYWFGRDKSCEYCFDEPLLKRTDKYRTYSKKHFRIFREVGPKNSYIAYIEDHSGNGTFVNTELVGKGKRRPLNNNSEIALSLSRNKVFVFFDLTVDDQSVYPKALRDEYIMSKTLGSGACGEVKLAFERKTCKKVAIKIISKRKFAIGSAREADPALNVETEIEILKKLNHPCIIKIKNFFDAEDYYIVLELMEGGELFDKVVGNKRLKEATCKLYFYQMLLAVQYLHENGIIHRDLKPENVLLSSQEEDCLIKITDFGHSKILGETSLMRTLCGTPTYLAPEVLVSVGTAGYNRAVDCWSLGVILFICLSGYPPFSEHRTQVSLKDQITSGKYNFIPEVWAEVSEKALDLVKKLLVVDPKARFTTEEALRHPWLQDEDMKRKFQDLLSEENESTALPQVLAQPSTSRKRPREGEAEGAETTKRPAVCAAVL
T19 sequence (Q86YV6 whole entry): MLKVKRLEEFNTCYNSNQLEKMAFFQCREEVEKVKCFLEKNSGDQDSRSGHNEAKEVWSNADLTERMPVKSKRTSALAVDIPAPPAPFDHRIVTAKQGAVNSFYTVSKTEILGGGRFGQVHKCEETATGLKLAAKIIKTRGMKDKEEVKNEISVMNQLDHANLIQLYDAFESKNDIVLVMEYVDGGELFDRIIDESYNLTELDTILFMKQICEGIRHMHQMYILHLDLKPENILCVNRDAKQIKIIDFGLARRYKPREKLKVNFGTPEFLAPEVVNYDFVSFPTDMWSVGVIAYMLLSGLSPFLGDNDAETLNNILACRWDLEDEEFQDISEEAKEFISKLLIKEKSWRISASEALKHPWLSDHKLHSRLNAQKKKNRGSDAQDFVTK

## Cc1ccc(Nc2ncc3c(n2)N(C)C(=O)N(c2cc(C(=O)N[C@H](C(=O)N4CCC[C@H]4C(=O)NC(C)(C)C(=O)N[C@@H](CC(C)C)C(=O)N(C)C)C(C)C)ccc2C)C3)cn1 [7a, (S)-N-(1-(((S)-1-(dimethylamino)-4-methyl-1-oxopentan-2-yl)amino)-2-methyl-1-oxopropan-2-yl)-1-((4-methyl-3-(1-methyl-7-((6-methylpyridin-3-yl)amino)-2-oxo-1,4-dihydropyrimido[4,5-d]pyrimidin-3(2H)-yl)benzoyl)-L-valyl)pyrrolidine-2-carboxamide] (X1-VP[Aib]L-NMe2)
[1]
  inhibition at 1 µM: 0%
[2]
  inhibition at 1 µM: 38%
[3]
  inhibition at 1 µM: 0%
[4]
  inhibition at 1 µM: 0%
[5]
  inhibition at 1 µM: 5%
[6]
  inhibition at 1 µM: 5%
[7]
  inhibition at 1 µM: 0%
[8]
  inhibition at 1 µM: 0%
[9]
  inhibition at 1 µM: 0%
[10]
  inhibition at 1 µM: 1%
[11]
  inhibition at 1 µM: 0%
[12]
  inhibition at 1 µM: 0%
[13]
  inhibition at 1 µM: 0%
[14]
  inhibition at 1 µM: 10%
[15]
  inhibition at 1 µM: 2%
[16]
  inhibition at 1 µM: 0%
[17]
  inhibition at 1 µM: 6%
[18]
  inhibition at 1 µM: 0%
[19]
  inhibition at 1 µM: 8%
[20]
  inhibition at 1 µM: 0%
[21]
  inhibition at 1 µM: 17%
[22]
  inhibition at 1 µM: 0%
[23]
  inhibition at 1 µM: 9%
[24]
  inhibition at 1 µM: 4%
[25]
  inhibition at 1 µM: 0%
[26]
  inhibition at 1 µM: 14%
[27]
  inhibition at 1 µM: 5%
[28]
  inhibition at 1 µM: 11%
[29]
  inhibition at 1 µM: 0%
[30]
  inhibition at 1 µM: 7%
[31]
  inhibition at 1 µM: 0%
[32]
  inhibition at 1 µM: 18%
[33]
  inhibition at 1 µM: 0%
[34]
  inhibition at 1 µM: 1%
[35]
  inhibition at 1 µM: 0%
[36]
  inhibition at 1 µM: 0%
[37]
  inhibition at 1 µM: 0%
[38]
  inhibition at 1 µM: 3%
[39]
  inhibition at 1 µM: 0%
[40]
  inhibition at 1 µM: 1%
[41]
  inhibition at 1 µM: 0%
[42]
  inhibition at 1 µM: 0%
